Measurements published in publication PMC9643456, “Matching amino acids membrane preference profile to improve activity of antimicrobial peptides” (Communications Biology, 2022).
In brackets after ≈: the same amount, converted by molar mass. Read-outs that look alike come from different tables or passages of the source. Square brackets hold non-standard residues; d marks the D form. Ends that are not written are not given here. Peptide text beside a SMILES is read from it.

How the values were obtained:
[1] = tested on: human red blood cells; assay: Hemolytic activity; type: cell-based
Outline: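 Peptides (100 μM down to 0.78 μM) were incubated with 4% final human erythrocytes in PBS for 18 h at 37 °C. Supernatant absorbance at 540 nm after centrifugation was scaled to 1% Triton X-100 (100%) and no peptide (0%); melittin served as positive control; triplicate runs.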

[2] = tested on: MDR S. aureus; assay: microbe, parasite or virus in culture; settings: for Minimum inhibitory concentrations, MDR S. aureus: CLSI broth microdilution, CAMHB with 50 mg/L Ca2+, 10 mg/L Mg2+, 5 × 10^5 CFU/ml, 18 h 37 °C, triplicate, strain KCCM 40510
Description: (§1) MDR Pseudomonas aeruginosa (CCARM 2180) was purchased from the Culture Collection of Antimicrobial Resistance Microbes (Seoul, Republic of Korea). MDR Acinetobacter baumannii (ATCC BAA-1605) and MDR Enterococcus faecalis (ATCC 51575) were purchased from the American Type Culture Collection (Manassas, VA, USA). MDR Staphylococcus aureus (KCCM 40510) was purchased from the Korean Culture Center of Microorganisms (Seoul, Republic of Korea). S. aureus (KCTC 1621) was purchased from the Korean Collection for Type Cultures. A. baumannii (KCCM 40203) was purchased from the Korean Culture Center of Microorganisms (Seoul, Republic of Korea).
(§2) To assess antimicrobial activity, the MIC50 and MIC90 were measured using broth microdilution following CLSI guidelines. […] Each experiment was performed in triplicate. Meropenem (Sigma, Darmstadt, Germany) and colistin were used as control antibiotics. Cation-adjusted Mueller–Hinton broth (CAMHB) (Becton, Dickinson and Company, Franklin Lakes, USA) with supplied calcium (50 mg/L) and magnesium (10 mg/L) was used for the CLSI-test condition. Bacteria in midlog phase and peptides were separately diluted in CAMHB. The bacteria and peptide solutions were then mixed in 96-well polyethylene plates (SPL, Gyeonggi-do, Korea) and incubated for 18 h at 37 °C. The final concentration for bacteria was 5 × 10^5 CFU/ml. […] The MIC was defined to be the lowest concentration of peptide without visible turbidity by comparing with control antibiotics with the unaided eye. […] Each experiment was performed in triplicate. MICs in albumin and acetic acid solutions were measured using the same protocol but with 0.2% bovine serum albumin (Bovogen, Keilor, Australia), 0.01% acetic acid (Merck, New Jersey, USA), and CAMHB with both calcium and magnesium. In addition, MICs used in the antibiotic resistance acquisition test, the outer–inner membrane permeation test, and the transmembrane potential test and for FE-SEM were individually determined. The final bacterial concentrations used were as follows: for resistance acquisition, optical density (OD) 0.01; for outer–inner membrane permeability assays (LB), OD 0.1; for the transmembrane potential test, 1 × 10^8 CFU/ml (OD 0.171); […]. Inhibitory activity unidentifiable by direct observation was determined by counting the CFUs. Each experiment was performed at least twice.

[3] = tested on: MDR A. baumannii; assay: microbe, parasite or virus in culture; settings: for Minimum inhibitory concentrations, MDR A. baumannii: CLSI broth microdilution, CAMHB with 50 mg/L Ca2+, 10 mg/L Mg2+, 5 × 10^5 CFU/ml, 18 h 37 °C, triplicate, strain ATCC BAA-1605
Description: as §1, §2

[4] = tested on: MDR P. aeruginosa; assay: microbe, parasite or virus in culture; settings: for Minimum inhibitory concentrations, MDR P. aeruginosa: CLSI broth microdilution, CAMHB with 50 mg/L Ca2+, 10 mg/L Mg2+, 5 × 10^5 CFU/ml, 18 h 37 °C, no visible turbidity, triplicate, strain CCARM 2180
Description: as §1, §2

[5] = tested on: MDR E. faecalis; assay: microbe, parasite or virus in culture; settings: for Minimum inhibitory concentrations, MDR E. faecalis: CLSI broth microdilution, CAMHB with 50 mg/L Ca2+, 10 mg/L Mg2+, 5 × 10^5 CFU/ml, 18 h 37 °C, triplicate, strain ATCC 51575
Description: as §1, §2

[6] = CAMHB plus 0.2% bovine serum albumin and 0.01% acetic acid, values marked * in Table 2

Row | Molecule | Hemolysis percent, 25 μM ([1]; red cells of human, 18 h, 25) [%] | Hemolysis percent, 50 μM ([1]; red cells of human, 18 h, 50) [%] | Hemolysis percent, 100 μM ([1]; red cells of human, 18 h, 100) [%] | Minimum inhibitory concentrations, MDR S. aureus [2] [µM] | Minimum inhibitory concentrations, MDR A. baumannii [3] [µM] | actual MIC as weight/volume concentration ([3]; molar MIC converted with the molecular weight (melittin 2.85 kDa, WCopW5 1.47 kDa)) [µg/mL] | Minimum inhibitory concentrations, MDR P. aeruginosa [4] [µM] | Minimum inhibitory concentrations, MDR E. faecalis [5] [µM] | Hemolysis percent, 25 μM [1] [%] | Hemolysis percent, 50 μM [1] [%] | Hemolysis percent, 100 μM [1] [%] | Hemolysis percent, 50 μM ([1]; red cells of human, 18 h, 50 μM) [%] | MIC in 0.2% albumin and 0.01% AcOH added CLSI standard condition, MDR S. aureus [2, 6] [µM] | MIC in 0.2% albumin and 0.01% AcOH added CLSI standard condition, MDR A. baumannii [3, 6] [µM] | MIC in 0.2% albumin and 0.01% AcOH added CLSI standard condition, MDR P. aeruginosa [4, 6] [µM] | MIC in 0.2% albumin and 0.01% AcOH added CLSI standard condition, MDR E. faecalis [5, 6] [µM]
1 | CC[C@@H](C)[C@@H](NC(=O)[C@@H](Cc1c[nH]c2ccccc12)NC(=O)[C@@H](CC(C)C)NC(=O)[C@@H](CC(C)C)NC(=O)[C@H](N)Cc1c[nH]c2ccccc12)C(=O)NCC(=O)N[C@H](CC(C)C)C(=O)N[C@H](CCCNC(=N)N)C(=O)N[C@H](CCCCN)C(=O)N[C@H](CCCCN)C(=O)N[C@H](CCCNC(=N)N)C(N)=O [WCopW5] (H-[dW][dL][dL][dW][dI]G[dL][dR][dK][dK][dR]-NH2) | 2.99 | 7.77 | 11.60 | 1.25 (≈ 1.83 µg/mL) | 1.25 (≈ 1.83 µg/mL) | 1.84 | 10 (≈ 14.7 µg/mL) | 2.5 (≈ 3.67 µg/mL) | – | – | – | – | – | – | – | –
2 | CC[C@@H](C)[C@@H](NC(=O)[C@@H](Cc1c[nH]c2ccccc12)NC(=O)[C@@H](CC(C)C)NC(=O)[C@@H](CC(C)C)NC(=O)[C@H](N)Cc1c[nH]c2ccccc12)C(=O)NCC(=O)N[C@H](CC(C)C)C(=O)N[C@H](CCCNC(=N)N)C(=O)N[C@H](CCCCN)C(=O)N[C@H](CCCCN)C(N)=O [WCopW8] (H-[dW][dL][dL][dW][dI]G[dL][dR][dK][dK]-NH2) | 3.85 | 8.51 | 15.04 | 2.5 (≈ 3.28 µg/mL) | 5 (≈ 6.56 µg/mL) | – | > 20 | 5 (≈ 6.56 µg/mL) | – | – | – | – | – | – | – | –
3 | CC[C@@H](C)[C@@H](NC(=O)[C@@H](Cc1c[nH]c2ccccc12)NC(=O)[C@@H](CC(C)C)NC(=O)[C@H](N)CC(C)C)C(=O)NCC(=O)N[C@H](CC(C)C)C(=O)N[C@H](CCCNC(=N)N)C(=O)N[C@H](CCCCN)C(=O)N[C@H](CCCCN)C(=O)N[C@H](CCCNC(=N)N)C(N)=O [WCopW13] (H-[dL][dL][dW][dI]G[dL][dR][dK][dK][dR]-NH2) | 1.00 | 1.13 | 1.21 | > 20 | 5 (≈ 6.41 µg/mL) | – | > 20 | > 20 | – | – | – | – | – | – | – | –
4 | CC[C@@H](C)[C@@H](NC(=O)[C@@H](Cc1c[nH]c2ccccc12)NC(=O)[C@@H](CC(C)C)NC(=O)[C@H](N)CC(C)C)C(=O)NCC(=O)N[C@H](CC(C)C)C(=O)N[C@H](CCCCN)C(=O)N[C@H](CCCCN)C(=O)N[C@H](CCCCN)C(=O)N[C@H](CCCCN)C(N)=O [WCopW14] (H-[dL][dL][dW][dI]G[dL][dK][dK][dK][dK]-NH2) | 0.98 | 1.06 | 1.10 | > 20 | > 20 | – | > 20 | > 20 | – | – | – | – | – | – | – | –
5 | CC[C@@H](C)[C@@H](NC(=O)[C@@H](Cc1c[nH]c2ccccc12)NC(=O)[C@@H](CC(C)C)NC(=O)[C@@H](CC(C)C)NC(=O)[C@@H](Cc1c[nH]c2ccccc12)NC(=O)[C@@H](N)CO)C(=O)NCC(=O)N[C@H](CC(C)C)C(=O)N[C@H](CCCNC(=N)N)C(=O)N[C@H](CCCCN)C(=O)N[C@H](CCCCN)C(=O)N[C@H](CCCNC(=N)N)C(N)=O [WCopW19] (H-S[dW][dL][dL][dW][dI]G[dL][dR][dK][dK][dR]-NH2) | 4.32 | 7.26 | 10.57 | 2.5 (≈ 3.89 µg/mL) | 2.5 (≈ 3.89 µg/mL) | – | 10 (≈ 15.5 µg/mL) | 2.5 (≈ 3.89 µg/mL) | – | – | – | – | – | – | – | –
6 | CC[C@@H](C)[C@@H](NC(=O)[C@@H](Cc1c[nH]c2ccccc12)NC(=O)[C@@H](C)NC(=O)[C@@H](C)NC(=O)[C@H](N)Cc1c[nH]c2ccccc12)C(=O)NCC(=O)N[C@H](CC(C)C)C(=O)N[C@H](CCCNC(=N)N)C(=O)N[C@H](CCCCN)C(=O)N[C@H](CCCCN)C(=O)N[C@H](CCCNC(=N)N)C(N)=O [WCopW20] (H-[dW][dA][dA][dW][dI]G[dL][dR][dK][dK][dR]-NH2) | 0.11 | 0.13 | 0.45 | > 20 | 2.5 (≈ 3.46 µg/mL) | – | > 20 | > 20 | – | – | – | – | – | – | – | –
7 | CC(C)C[C@@H](NC(=O)[C@H](N)Cc1c[nH]c2ccccc12)C(=O)N[C@H](CC(C)C)C(=O)N[C@H](Cc1c[nH]c2ccccc12)C(=O)N[C@H](C)C(=O)NCC(=O)N[C@H](C)C(=O)N[C@H](CCCNC(=N)N)C(=O)N[C@H](CCCCN)C(=O)N[C@H](CCCCN)C(=O)N[C@H](CCCNC(=N)N)C(N)=O [WCopW21] (H-[dW][dL][dL][dW][dA]G[dA][dR][dK][dK][dR]-NH2) | 0.60 | 1.03 | 1.74 | > 20 | > 20 | – | > 20 | > 20 | – | – | – | – | – | – | – | –
8 | HLLWIALRKK-NH2 [HCopW] | – | – | – | >20 | >20 | – | >20 | >20 | – | – | – | – | – | – | – | –
9 | NH2 wF l l w i g l r k k r CONH2 [WCopW18] | – | – | – | 1.25 | 1.25 | – | 5 | 2.5 | 1.89 | 4.52 | 6.74 | – | – | – | – | –
10 | NH2 wM l l w i g l r k k r CONH2 [WCopW15] | – | – | – | 1.25 | 1.25 | – | 10 | 2.5 | 0.65 | 1.16 | 4.04 | – | – | – | – | –
11 | SLLWIALRKK-NH2 [SCopW] | – | – | – | >20 | >20 | – | >20 | >20 | – | – | – | – | – | – | – | –
12 | WLLLLLRRR-NH2 [AcWL-1] | 11.89 ±1.24 | – | 36.35 ±3.00 | 10 | 2.5 | – | > 20 | 10 | – | – | – | 20.52 ±1.25 | 5 | 1.25 | > 20 | 5
13 | WLLWIALRKK-NH2 [WCopW] | – | – | – | 5 | 5 | – | > 20 | 10 | – | – | – | – | – | – | – | –
